Data as given in PubChem BioAssay (NCI).
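Step 1: Grow cells in 96-well plates. Step 2: Expose to compound for 48 hours at 5 concentrations. Step 3: Interpolate endpoints linearly; if unreached, use highest concentration. Definition used: TGI = concentration required for complete inhibition of growth.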

What was measured:
Assay in all cases: NCI anticancer screen, dose series, 48 h
[1] = tested on: HCT-15 colon
[2] = tested on: U251 CNS
[3] = tested on: HL-60(TB) leukemia
[4] = tested on: SF-295 CNS
[5] = tested on: SF-539 CNS
[6] = tested on: NCI-H226 lung
[7] = tested on: SF-268 CNS
[8] = tested on: OVCAR-3 ovarian
[9] = tested on: OVCAR-4 ovarian
[10] = tested on: UO-31 renal
[11] = tested on: DMS 273 small cell lung
[12] = tested on: K-562 leukemia
[13] = tested on: DLD-1 colon
[14] = tested on: COLO 205 colon
[15] = tested on: DMS 114 small cell lung
[16] = tested on: SK-MEL-28 melanoma
[17] = tested on: XF 498 CNS
[18] = tested on: NCI-H23 lung
[19] = tested on: MOLT-4 leukemia
[20] = tested on: SK-OV-3 ovarian
[21] = tested on: A549 NSCLC
[22] = tested on: SNB-19 CNS
[23] = tested on: IGROV1 ovarian
[24] = tested on: SN12C renal
[25] = tested on: KM12 colon
[26] = tested on: LXFL 529 NSCLC
[27] = tested on: HCC-2998 colon
[28] = tested on: NCI-H460 lung
[29] = tested on: OVCAR-8 ovarian
[30] = tested on: M14 melanoma
[31] = tested on: ACHN renal
[32] = tested on: SNB-78 CNS
[33] = tested on: UACC-257 melanoma
[34] = tested on: KM20L2 colon
[35] = tested on: TK-10 renal
[36] = tested on: UACC-62 melanoma
[37] = tested on: HOP-62 NSCLC
[38] = tested on: EKVX NSCLC
[39] = tested on: SW-620 colon
[40] = tested on: RXF 393 renal
[41] = tested on: RPMI-8226 leukemia
[42] = tested on: LOX IMVI melanoma
[43] = tested on: HT29 colon
[44] = tested on: CCRF-CEM leukemia
[45] = tested on: OVCAR-5 ovarian
[46] = tested on: SK-MEL-5 melanoma
[47] = tested on: HCT-116 colon
[48] = tested on: M19-MEL melanoma
[49] = tested on: SNB-75 CNS
[50] = tested on: SR leukemia
[51] = tested on: 786-0 renal
[52] = tested on: HOP-18 NSCLC
[53] = tested on: MALME-3M melanoma
[54] = tested on: SK-MEL-2 melanoma
[55] = tested on: NCI-H522 lung
[56] = tested on: NCI/ADR-RES ovarian
[57] = tested on: MDA-N
[58] = tested on: DU-145 prostate
[59] = tested on: HOP-92 NSCLC
[60] = tested on: MDA-MB-231 breast
[61] = tested on: MDA-MB-435
[62] = tested on: T-47D breast
[63] = tested on: PC-3 prostate
[64] = tested on: A498 renal
[65] = tested on: CAKI-1 renal
[66] = tested on: HS 578T breast
[67] = tested on: MCF7 breast
[68] = tested on: BT-549 breast

Structure (SMILES): CC1(C)OC2C(CO)OC(/N=C(\NC#N)Oc3ccccc3)C2O1 (stereo unspecified)
- TGI [1]: > 100 µM
- TGI [2]: > 100 µM
- TGI [3]: > 100 µM
- TGI [4]: > 100 µM
- TGI [5]: > 100 µM
- TGI [6]: > 100 µM
- TGI [7]: > 100 µM
- TGI [8]: > 100 µM
- TGI [9]: > 100 µM
- TGI [10]: > 100 µM
- TGI [11]: > 100 µM
- TGI [12]: > 100 µM
- TGI [13]: > 100 µM
- TGI [14]: > 100 µM
- TGI [15]: > 100 µM
- TGI [16]: > 100 µM
- TGI [17]: > 100 µM
- TGI [18]: > 100 µM
- TGI [19]: > 100 µM
- TGI [20]: > 100 µM
- TGI [21]: > 100 µM
- TGI [22]: > 100 µM
- TGI [23]: > 100 µM
- TGI [24]: > 100 µM
- TGI [25]: > 100 µM
- TGI [26]: > 100 µM
- TGI [27]: > 100 µM
- TGI [28]: > 100 µM
- TGI [29]: > 100 µM
- TGI [30]: > 100 µM
- TGI [31]: > 100 µM
- TGI [32]: > 100 µM
- TGI [33]: > 100 µM
- TGI [34]: > 100 µM
- TGI [35]: > 100 µM
- TGI [36]: > 100 µM
- TGI [37]: > 100 µM
- TGI [38]: > 100 µM
- TGI [39]: > 100 µM
- TGI [40]: > 100 µM
- TGI [41]: > 100 µM
- TGI [42]: > 100 µM
- TGI [43]: > 100 µM
- TGI [44]: > 100 µM
- TGI [45]: > 100 µM
- TGI [46]: > 100 µM
- TGI [47]: > 100 µM
- TGI [48]: > 100 µM
- TGI [49]: > 100 µM
- TGI [50]: > 100 µM

Structure (SMILES): CCOc1ccccc1NC(=O)C(=O)C1C(=O)Nc2ccccc2S1=O (stereo unspecified)
- TGI [1]: > 100 µM
- TGI [2]: > 100 µM
- TGI [3]: > 100 µM
- TGI [51]: > 100 µM
- TGI [7]: > 100 µM
- TGI [8]: > 100 µM
- TGI [10]: > 100 µM
- TGI [11]: > 100 µM
- TGI [12]: > 100 µM
- TGI [15]: > 100 µM
- TGI [16]: > 100 µM
- TGI [52]: > 100 µM
- TGI [19]: > 100 µM
- TGI [20]: > 100 µM
- TGI [21]: > 100 µM
- TGI [26]: > 100 µM
- TGI [27]: > 100 µM
- TGI [28]: > 100 µM
- TGI [30]: > 100 µM
- TGI [32]: > 100 µM
- TGI [53]: > 100 µM
- TGI [40]: > 100 µM
- TGI [41]: > 100 µM
- TGI [54]: > 100 µM
- TGI [44]: > 100 µM
- TGI [55]: > 100 µM
- TGI [47]: > 100 µM

Structure (SMILES): COC1=C(NC(C)=O)C(=O)c2nc3n(c2C1=O)CCC3
- TGI [56]: 41.1 µM
- TGI [57]: 6.84 µM
- TGI [1]: 53.4 µM
- TGI [2]: > 59.9 µM
- TGI [3]: > 30.4 µM
- TGI [4]: 40.3 µM
- TGI [5]: 32.9 µM
- TGI [51]: 36.4 µM
- TGI [6]: 49.4 µM
- TGI [7]: 33.2 µM
- TGI [8]: 30.3 µM
- TGI [9]: 30.7 µM
- TGI [10]: 47.1 µM
- TGI [11]: 34.6 µM
- TGI [12]: > 65.1 µM
- TGI [13]: 29.3 µM
- TGI [14]: 38.6 µM
- TGI [15]: 25 µM
- TGI [58]: 35.8 µM
- TGI [16]: 32.9 µM
- TGI [17]: 33.6 µM
- TGI [52]: 39.1 µM
- TGI [18]: 39 µM
- TGI [19]: > 66.8 µM
- TGI [20]: > 100 µM
- TGI [21]: > 69.9 µM
- TGI [22]: 67.6 µM
- TGI [23]: 35.6 µM
- TGI [24]: 32.3 µM
- TGI [25]: > 57.8 µM
- TGI [27]: 65.8 µM
- TGI [59]: 26.2 µM
- TGI [28]: > 76 µM
- TGI [29]: 33.5 µM
- TGI [30]: 32.8 µM
- TGI [31]: 40.7 µM
- TGI [60]: 27.1 µM
- TGI [32]: 28.9 µM
- TGI [53]: 34.8 µM
- TGI [33]: 30.4 µM
- TGI [61]: 9.97 µM
- TGI [34]: > 100 µM
- TGI [35]: > 66.6 µM
- TGI [62]: 72.7 µM
- TGI [36]: 32.4 µM
- TGI [63]: > 100 µM
- TGI [64]: 50.2 µM
- TGI [37]: 39.9 µM
- TGI [38]: 38.9 µM
- TGI [39]: 42.4 µM
- TGI [40]: 31.7 µM
- TGI [41]: > 79.2 µM
- TGI [42]: 31.8 µM
- TGI [43]: 66.2 µM
- TGI [54]: 32.7 µM
- TGI [44]: 14.1 µM
- TGI [45]: 34.6 µM
- TGI [46]: 31.5 µM
- TGI [65]: 32.8 µM
- TGI [55]: 40.1 µM
- TGI [47]: 29.4 µM
- TGI [66]: 82.8 µM
- TGI [67]: 47.1 µM
- TGI [49]: 41.2 µM
- TGI [50]: > 86.2 µM

Structure (SMILES): O=C(NCCc1ccc(F)cc1)c1cc(/C=C/c2cc(O)ccc2O)ccc1O
- TGI [56]: 10.7 µM
- TGI [57]: 9.59 µM
- TGI [1]: 6.32 µM
- TGI [2]: 4.49 µM
- TGI [3]: 15.4 µM
- TGI [4]: 36.2 µM
- TGI [5]: 5.84 µM
- TGI [51]: 5.03 µM
- TGI [6]: 29.5 µM
- TGI [7]: 12.2 µM
- TGI [8]: 8.44 µM
- TGI [9]: 12 µM
- TGI [10]: 3.07 µM
- TGI [12]: > 29.2 µM
- TGI [14]: 13.6 µM
- TGI [58]: 33.2 µM
- TGI [16]: > 25.3 µM
- TGI [18]: 13.3 µM
- TGI [19]: 6.99 µM
- TGI [20]: 27.9 µM
- TGI [21]: > 100 µM
- TGI [22]: 20.8 µM
- TGI [23]: 7.66 µM
- TGI [24]: 21.1 µM
- TGI [25]: 38 µM
- TGI [27]: 26 µM
- TGI [59]: 3.97 µM
- TGI [28]: 40 µM
- TGI [29]: 13.6 µM
- TGI [30]: 12.5 µM
- TGI [31]: 4.25 µM
- TGI [60]: 10.5 µM
- TGI [53]: 5.92 µM
- TGI [33]: 6.52 µM
- TGI [61]: 22 µM
- TGI [35]: 5.64 µM
- TGI [62]: 5.28 µM
- TGI [36]: 4.85 µM
- TGI [63]: 10.9 µM
- TGI [64]: 14.1 µM
- TGI [37]: 14.8 µM
- TGI [38]: 6.38 µM
- TGI [39]: > 100 µM
- TGI [40]: 4.4 µM
- TGI [41]: > 100 µM
- TGI [68]: 2.97 µM
- TGI [42]: 14 µM
- TGI [43]: 62.1 µM
- TGI [54]: 7.95 µM
- TGI [44]: > 100 µM
- TGI [45]: 22.3 µM
- TGI [46]: 6.35 µM
- TGI [65]: 15 µM
- TGI [55]: 4.88 µM
- TGI [47]: 3.94 µM
- TGI [66]: > 100 µM
- TGI [67]: 10.1 µM
- TGI [49]: 14.4 µM
- TGI [50]: > 30 µM
